# According to patent USRE47761E1, “Anti-axl antibodies and methods of use” (Genentech, Inc., priority 2010, dated 2019):
# Entries after “also recorded” stand apart in the source; their conditions may differ.
# B1: YW327.6S2 (antibody, V domains shown)
# VH: EVQLVESGGGLVQPGGSLRLSCAASGFSLSGSWIHWVRQAPGKGLEWVGWINPYRGYAYYADSVKGRFTISADTSKNTAYLQMNSLRAEDTAVYYCAREYSGWGGSSVGYAMDYWGQGTLV
# VL: DIQMTQSPSSLSASVGDRVTITCRASQDVSTAVAWYQQKPGKAPKLLIYSASFLYSGVPSRFSGSGSGTDFTLTISSLQPEDFATYYCQQSYTTPPTFGQGTKVEIKR
# How the values were obtained:
# A549 xenograft = conditions: for reduction in tumor growth as a single agent: A549, FIG. 9A, erlotinib 100 mg/kg/day oral gavage
# Protocol: (§1) Mice were removed from the study when their tumor size reached 800 mm^3, and the animals remaining in each group (% remaining) were plotted. C. […] 12A11 and anti-VEGF was administrated IP at 30 mg/kg and 1 mg/kg, respectively, twice a week, starting when the mean tumor size reached 100 mm^3 (day 0). […] Cell lysates from tumors were analyzed by Western blot for Axl expression. […] Tumors from mice treated as above in D were excised at 0 and 72 hr post dosing and tumor vasculature was visualized by staining with MECA32 immunohistochemistry and quantified by image analysis (expressed as microns square).
# All studies were conducted in accordance with the “Guide for the Care and Use of Laboratory Animals” (NIH), and approved by the Institutional Animal Care and Used Committee (IACUC). A total of 5×10^6 (A549) or 10^7 cells in matrigel (MDA-MB-231) were implanted subcutaneously into right flank of nude (A549) or SCID mice (MDA-MB-231), respectively. When the average tumor sized reached 100 mm^3, mice were randomized and divided into different treatment groups (n=10 for each group). Anti-Axl or control IgG1 antibodies were at administrated at 10-30 mg/kg, anti-VEGF at 1-2 mg/kg, via intraperitoneal injection (IP), twice weekly. Erlotinib was administrated by oral gavage at 100 mg/kg/day. Paclitaxel and carboplatin were administrated subcutaneously at 6.25 mg/kg/day for 5 days, and 100 mg/kg for a single dose, respectively, at the beginning of the treatment. Statistic analyses were performed using Anova two-way for comparison of tumor growth in different treatment groups.
# cynomolgus Axl = assay: Cross reaction ELISA, cynomolgus Axl; format: binding
# Protocol: (§2) A-B. Affinity measurement of YW327.6S2 using BIAcore. Association rates (kon) and dissociation rates (koff) were calculated using the one-to-one Langmuir binding model. The equilibrium dissociation constant (Kd) was derived as the […]. C. […] Plates were coated with anti-human IgG Fc, and then incubated with human Axl, Mer, Tyro3 Fcs, mouse or cynomolgus AxlFcs. After washing, isotype control antibody or YW327.6S2 was added and followed by HRP conjugated anti-human IgG. […] FIG. 7D: ELISA. Plates were coated with anti-human IgG Fc and incubated with human Axl-Fc. After washing, Gas6 was added with or without antibodies. Binding of Gas6 was detected by biotylated anti-Gas6 antibody and streptavidin-HRP conjugate. FIG. 7E: FACS. […] Binding of Gas6 to the cell surface was detected by biotylated anti-Gas6 antibody and streptavidin-PE conjugate. […] Phosphorylated Axl was measured by ELISA (upper panel), and phosphorylated Akt by Western Blotting analysis (lower panel). […] Cell viability was measured by CellTiter Glo assay.
# ELISA assays were performed as follows: goat anti-human IgG Fc coated plates were blocking with 0.5% BSA, PBS, 0.05% Tween 20 (PBST). […] Secreted Ang-2 and DKK3 was measured using R&D ELISA kit, according to the manufacturer's instruction. Axl expression on cell surface was determined by FACS using standard techniques. […] Samples were analyzed on BD FACScalibur Flow Cytometer.
# Akt = assay: Gas6-induced Akt phosphorylation in H1299 cells (Western blotting); format: cell-based, human; conditions: pre-incubated 4 hrs, Gas6 30 minutes
# Protocol: as §2
# A549 xenograft tumors = assay: Cleaved caspase 3 and Ki67 IHC of A549 xenograft tumors; format: in vivo, mice; conditions: A549 tumors treated two weeks, versus control
# Protocol: B. Kaplan-Meier curve of various treatment groups. […] C. 12A11 enhances the effect of anti-VEGF.
# Xenograft tumor samples were fixed in 10% neutral buffered formalin, processed, embedded in paraffin, and sectioned at 4 μm. Thin sections were then treated with primary antibodies for Ki67, cleaved caspase 3 and MECA32, followed by biotinylated secondary antibodies and the DAB chromagen.
# tumor vasculature [1] = assay: Intratumoral vascular density (MECA32) in A549 xenograft tumors; format: in vivo, mice
# Protocol: as §1
# (§3) Tumor samples were stained with MECA32, a pan endothelial cell marker. Images were acquired by the Ariol SL-50 automated slide scanning platform (Genetix Ltd.; Hampshire, UK) at 100× final magnification. Tumor-specific areas were exported for analysis in the Metamorph software package (MDS Analytical Technologies; Ontario, Canada) as individual 8-bit images. The brown DAB-specific staining was isolated from the Hematoxylin counterstain using a blue-normalization algorithm as described (Brey et al, 2003). […] Area measurements were recorded for individual vessels, as well as the tumor and non-tumor areas in each image. Raw values based on image analysis were analyzed using the JMP 8.0 software (SAS Institute, Inc. North Carolina, USA). […]
# MDA-MB-231 xenograft = MDA-MB-231 xenograft tumor growth; format: in vivo, SCID mice
# tumor vasculature [2] = assay: Intra-tumoral vascular density (MECA32) in MDA-MB-231 xenograft tumors; format: in vivo, SCID mice; conditions: MDA-MB-231 tumors
# Protocol: (§4) Cell lysates from tumors were used in Western blot analysis for Axl expression. […] F. Axl is highly expressed in infiltrating macrophages of primary human breast cancer. Immunohistochemistry was used to examine 79 primary tumors. 21% of these tumors express high levels of Axl in the infiltrating macrophages. Macrophages were identified by staining with anti-CD68, and expression of Axl on macrophages was determined by anti-Axl/CD68 dual IHC. Serial sections were used. […] Tumor associated macrophages were isolated by sorting for F4/80 positive cells and cultured overnight. Cytokines and chemokines secreted into the medium were measured using the Bio-Plea mouse cytokine assay kit.
# as §3, with “images.” for “images. The brown DAB-specific staining was isolated from the Hematoxylin counterstain using a blue-normalization algorithm as described (Brey et al, 2003).”
# [3] = test system: tumor-associated macrophages; assay: Cytokine/chemokine secretion from tumor-associated macrophages of MDA-MB-231 xenografts; format: in vivo, mice; conditions: MDA-MB-231 tumors treated one week, 20 mg/kg, versus control antibody
# Protocol: as §4
# Tumors were dissected, chopped into small pieces and incubated in RPMI1640 medium with 2.5% FBS, 0.2 units/ml Liberase Blendzymes II and 5 units/ml DNaseI, (Roche). Tumor cells were disassociated using MACS Dissociator (Miltenyi Biotec) and maintained for 20 minutes at room temperature. EDTA (final concentration 0.002%) was added to stop the reaction. Single cell suspensions were prepared, and red blood cells were removed using RBC lysis buffer (eBioscience). […] Cultured media was collected and the levels of cytokines and chemokines were determined using Bio-Plex mouse cytokine assays (Bio-Rad) according to manufacturer's instructions.
# [4] = test system: MDA-MB-231 breast cancer cells; assay: MDA-MB-231 metastasis after tail vein injection (bioluminescence); format: in vivo, SCID mice
# Protocol: A. Bioluminescence imaging 4 weeks after tail vein injection of tumor cells. Mice were injected intraperitoneally (i.p.) with 200 μL of 25 mg/ml D-luciferin (Invitrogen) in PBS and were anesthetized during imaging using isoflurane via nose cone. Bioluminescence images were acquired on the Photon Imager (Biospace Lab, Paris, France) that has an intensified charge-coupled device camera. B. H & E staining of the tibia sections.
# For metastasis studies, 5×10^5 MDA-MB-231 cells stably transfected with a luciferase reporter gene (Li et al, 2009) were implanted into SCID mice via tail vein injection. Metastasis of tumor cells to various organs was monitor by bioluminescence detection as described (Li et al, 2009).
# [5] = molecular target: T1, human Axl ECD-His protein (human, UniProt P30530 26-451); assay: SPR (BIAcore-3000); anti-Axl human IgG captured by anti-human IgG, human Axl ECD-His injected
# T1 construct: also called Hu Axl; not shown: His tag
# T1 sequence (P30530 other isoform, or with tags, fused parts or gaps): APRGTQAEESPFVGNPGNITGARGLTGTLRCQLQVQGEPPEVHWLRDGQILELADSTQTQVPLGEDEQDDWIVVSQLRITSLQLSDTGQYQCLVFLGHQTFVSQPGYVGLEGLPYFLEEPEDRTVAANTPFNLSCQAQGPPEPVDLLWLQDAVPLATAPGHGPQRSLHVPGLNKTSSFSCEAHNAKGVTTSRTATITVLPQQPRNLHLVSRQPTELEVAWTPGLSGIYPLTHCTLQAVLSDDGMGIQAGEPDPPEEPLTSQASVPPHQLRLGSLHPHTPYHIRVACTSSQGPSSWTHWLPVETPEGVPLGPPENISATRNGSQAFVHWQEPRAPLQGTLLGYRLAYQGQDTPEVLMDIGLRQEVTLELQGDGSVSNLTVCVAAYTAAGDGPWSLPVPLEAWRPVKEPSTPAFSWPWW
molecule,measurement,setting,value
"C#Cc1cccc(Nc2ncnc3cc(OCCOC)c(OCCOC)cc23)c1 [erlotinib, reference compound]",reduction in tumor growth as a single agent,A549 xenograft,30%
"YW327.6S2: Affinity matured phage-derived human anti-Axl monoclonal antibody, from clone YW327.6",binding to cynomolgus Axl,cynomolgus Axl,binds; also recorded: cross reacts
same,Gas6-induced phosphorylation of Akt,Akt,blocks
same,reduction in tumor growth as a single agent,A549 xenograft,30%
same,tumor growth inhibition by single agent,"A549 xenograft; A549, YW327.6S2 10 mg/kg or anti-VEGF 1 mg/kg IP twice a week",30%
same,duration of tumor stasis after treatment cessation,"A549 xenograft; A549, co-administration with anti-VEGF",at least 4 weeks
same,effect on the anti-tumor effect of anti-VEGF,"A549 xenograft; A549, combination with anti-VEGF 1 mg/kg",enhances
same,tumor re-growth from last dose to day 85,"A549 xenograft; A549, in combination with anti-VEGF",no tumor re-growth
same,"survival at end of experiment (Kaplan-Meier, tumor size 800 mm^3 cutoff)","A549 xenograft; A549, in combination with anti-VEGF, day 85",survival of all the animals
same,delay of tumor growth compared to a single agent,"A549 xenograft; A549, in combination with anti-VEGF, dosed 60 days, followed to day 85",significantly delayed tumor growth
same,reduction of tumor growth rate in combination with erlotinib,"A549 xenograft; mouse, in vivo",more than 50%
same,tumor growth inhibition by the combination treatment,"A549 xenograft; mouse, in vivo",60%
same,Ki67 positive nuclei,A549 xenograft tumors,no significant difference
same,"cleaved caspase 3 (CC3), apoptosis",A549 xenograft tumors,increased; also recorded: induces apoptosis
same,"intratumoral vascular density, antibody alone",tumor vasculature [1],did not significantly reduced
same,"intratumoral vascular density, combination with anti-VEGF",tumor vasculature [1],significant decrease; also recorded: enhances the effect of anti-VEGF in reducing intra-tumoral vascular density
same,"reduction of tumor growth, antibody alone",MDA-MB-231 xenograft; 20 mg/kg IP twice a week,25%
same,"reduction in tumor growth, combination therapy with anti-VEGF",MDA-MB-231 xenograft; 20 mg/kg with anti-VEGF 2 mg/kg,50%
same,"intra-tumoral vascular density, single antibody versus control",tumor vasculature [2],significantly reduced; also recorded: reduces
same,"tumor associated vascular density, combination with anti-VEGF",tumor vasculature [2],further reduction
same,inflammatory cytokines and chemokines produced by TAMs,[3],much lower levels; also recorded: inhibits
same,"sites detected by bioluminescence, total for the entire group","[4]; four weeks after injection, control group total 18",7
same,"metastasis of MDA-MB-231 cells (sites detected by bioluminescence), in words",[4]; versus control antibody,significantly reduced; also recorded: reduces
B1,Kd,[5],~1 nM
